Source: the supplement of paper PMC10307832

How the values were obtained:
Assay in all cases: relative viability (nuclei count vs DMSO), 5 days (fraction); higher = more cells survive
[1] = tested on: NCI-H322M
Method in brief: (§1)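 Relative viability is defined as nuclei in treated wells over nuclei in vehicle wells. Duplicate plates were run and medians reported. Lung cancer cell lines in 1536-well plates were dosed by pin tool one day after seeding, with one drug or with a fixed anchor-drug dose plus five library-drug doses (not always all listed) in √10 steps, and nuclei were counted after 5 days.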

[2] = tested on: NCI-H460
Method in brief: as §1

[3] = tested on: NCI-H2087
Method in brief: as §1

[4] = tested on: EKVX
Method in brief: as §1

[5] = tested on: NCI-H2009
Method in brief: as §1

[6] = tested on: NCI-H1993
Method in brief: as §1

[7] = tested on: SK-MES-1
Method in brief: as §1

[8] = tested on: CAL-12T
Method in brief: as §1

[9] = tested on: EPLC-272H
Method in brief: as §1

[10] = tested on: NCI-H2342
Method in brief: as §1

[11] = tested on: H3255
Method in brief: as §1

[12] = tested on: COR-L 105
Method in brief: as §1

[13] = tested on: NCI-H1975
Method in brief: as §1

[14] = tested on: ABC-1
Method in brief: as §1

[15] = tested on: NCI-H441
Method in brief: as §1

[16] = tested on: ChaGo-K-1
Method in brief: as §1

[17] = tested on: HCC-827
Method in brief: as §1

[18] = tested on: NCI-H1792
Method in brief: as §1

[19] = tested on: NCI-H2085
Method in brief: as §1

[20] = tested on: HCC-366
Method in brief: as §1

[21] = tested on: NCI-H1355
Method in brief: as §1

[22] = tested on: NCI-H2228
Method in brief: as §1

CCNC(=O)c1noc(-c2cc(C(C)C)c(O)cc2O)c1-c1ccc(CN2CCOCC2)cc1 [Luminespib] + COc1cccc2cc(-c3nc([C@H]4CC[C@H](C(=O)O)CC4)n4ncnc(N)c34)[nH]c12 [OSI-027] (partner 0.5 µM) showed a relative viability ([1]; first compound 0.002 µM) of 0.564, a relative viability ([1]; first compound 0.006325 µM) of 0.503 and a relative viability ([1]; first compound 0.02 µM) of 0.467. The relative viability ([1]; first compound 0.06325 µM) was 0.278, the relative viability ([1]; first compound 0.2 µM) was 0.312 and the relative viability ([2]; first compound 0.002 µM) was 0.702. The relative viability ([2]; first compound 0.006325 µM) was 0.586, the relative viability ([2]; first compound 0.02 µM) was 0.0482 and the relative viability ([2]; first compound 0.06325 µM) was 0.0153. The relative viability ([2]; first compound 0.2 µM) was 0.0165, the relative viability ([3]; first compound 0.002 µM) was 0.553 and the relative viability ([3]; first compound 0.006325 µM) was 0.454. For the same compound, the relative viability ([3]; first compound 0.02 µM) was 0.157, the relative viability ([3]; first compound 0.06325 µM) was 0.125 and the relative viability ([3]; first compound 0.2 µM) was 0.0972. The relative viability ([4]; first compound 0.002 µM) was 0.631, the relative viability ([4]; first compound 0.006325 µM) was 0.684 and the relative viability ([4]; first compound 0.06325 µM) was 0.658. It also gave a relative viability ([4]; first compound 0.2 µM) of 0.143, a relative viability ([5]; first compound 0.002 µM) of 0.773 and a relative viability ([5]; first compound 0.006325 µM) of 0.534. It also gave a relative viability ([5]; first compound 0.02 µM) of 0.518, a relative viability ([5]; first compound 0.06325 µM) of 0.0609 and a relative viability ([5]; first compound 0.2 µM) of 0.0769. It also gave a relative viability ([6]; first compound 0.002 µM) of 0.598, a relative viability ([6]; first compound 0.006325 µM) of 0.545 and a relative viability ([6]; first compound 0.02 µM) of 0.562. The relative viability ([6]; first compound 0.06325 µM) was 0.457, the relative viability ([6]; first compound 0.2 µM) was 0.389 and the relative viability ([7]; first compound 0.002 µM) was 0.609. The relative viability ([7]; first compound 0.006325 µM) was 0.486, the relative viability ([7]; first compound 0.02 µM) was 0.2 and the relative viability ([7]; first compound 0.06325 µM) was 0.11. The relative viability ([7]; first compound 0.2 µM) was 0.131, the relative viability ([8]; first compound 0.002 µM) was 0.799 and the relative viability ([8]; first compound 0.006325 µM) was 0.63. The relative viability ([8]; first compound 0.02 µM) was 0.21, the relative viability ([8]; first compound 0.06325 µM) was 0.0898 and the relative viability ([8]; first compound 0.2 µM) was 0.0995. The relative viability ([9]; first compound 0.002 µM) was 0.261, the relative viability ([9]; first compound 0.006325 µM) was 0.26 and the relative viability ([9]; first compound 0.06325 µM) was 0.27. For the same compound, the relative viability ([9]; first compound 0.2 µM) was 0.122, the relative viability ([10]; first compound 0.002 µM) was 0.623 and the relative viability ([10]; first compound 0.006325 µM) was 0.586. It also gave a relative viability ([10]; first compound 0.02 µM) of 0.545, a relative viability ([10]; first compound 0.06325 µM) of 0.569 and a relative viability ([10]; first compound 0.2 µM) of 0.397. For the same compound, the relative viability ([11]; first compound 0.002 µM) was 0.596, the relative viability ([11]; first compound 0.006325 µM) was 0.628 and the relative viability ([11]; first compound 0.06325 µM) was 0.577. The relative viability ([11]; first compound 0.2 µM) was 0.249, the relative viability ([12]; first compound 0.002 µM) was 0.775 and the relative viability ([12]; first compound 0.006325 µM) was 0.619. It also gave a relative viability ([12]; first compound 0.02 µM) of 0.331, a relative viability ([12]; first compound 0.06325 µM) of 0.162 and a relative viability ([12]; first compound 0.2 µM) of 0.176. The relative viability ([13]; first compound 0.002 µM) was 0.746, the relative viability ([13]; first compound 0.006325 µM) was 0.677 and the relative viability ([13]; first compound 0.02 µM) was 0.187. For the same compound, the relative viability ([13]; first compound 0.06325 µM) was 0.0795, the relative viability ([13]; first compound 0.2 µM) was 0.0958 and the relative viability ([14]; first compound 0.002 µM) was 0.532. For the same compound, the relative viability ([14]; first compound 0.006325 µM) was 0.476, the relative viability ([14]; first compound 0.02 µM) was 0.312 and the relative viability ([14]; first compound 0.06325 µM) was 0.195. The relative viability ([14]; first compound 0.2 µM) was 0.186, the relative viability ([15]; first compound 0.002 µM) was 0.655 and the relative viability ([15]; first compound 0.006325 µM) was 0.588. It also gave a relative viability ([15]; first compound 0.02 µM) of 0.286, a relative viability ([15]; first compound 0.06325 µM) of 0.142 and a relative viability ([15]; first compound 0.2 µM) of 0.16. The relative viability ([16]; first compound 0.002 µM) was 0.562, the relative viability ([16]; first compound 0.006325 µM) was 0.612 and the relative viability ([16]; first compound 0.02 µM) was 0.525. It also gave a relative viability ([16]; first compound 0.06325 µM) of 0.199, a relative viability ([16]; first compound 0.2 µM) of 0.161 and a relative viability ([17]; first compound 0.002 µM) of 0.795. The relative viability ([17]; first compound 0.006325 µM) was 0.725, the relative viability ([17]; first compound 0.02 µM) was 0.543 and the relative viability ([17]; first compound 0.06325 µM) was 0.354. For the same compound, the relative viability ([17]; first compound 0.2 µM) was 0.126, the relative viability ([18]; first compound 0.002 µM) was 0.637 and the relative viability ([18]; first compound 0.006325 µM) was 0.618. For the same compound, the relative viability ([18]; first compound 0.02 µM) was 0.509, the relative viability ([18]; first compound 0.06325 µM) was 0.26 and the relative viability ([18]; first compound 0.2 µM) was 0.229. The relative viability ([19]; first compound 0.002 µM) was 0.793, the relative viability ([19]; first compound 0.006325 µM) was 0.779 and the relative viability ([19]; first compound 0.02 µM) was 0.395. The relative viability ([19]; first compound 0.06325 µM) was 0.242, the relative viability ([19]; first compound 0.2 µM) was 0.233 and the relative viability ([20]; first compound 0.002 µM) was 1.11. It also gave a relative viability ([20]; first compound 0.006325 µM) of 0.832, a relative viability ([20]; first compound 0.02 µM) of 0.698 and a relative viability ([20]; first compound 0.06325 µM) of 0.0495. It also gave a relative viability ([20]; first compound 0.2 µM) of 0.0391, a relative viability ([21]; first compound 0.002 µM) of 0.39 and a relative viability ([21]; first compound 0.006325 µM) of 0.377. It also gave a relative viability ([21]; first compound 0.02 µM) of 0.277, a relative viability ([21]; first compound 0.06325 µM) of 0.163 and a relative viability ([21]; first compound 0.2 µM) of 0.148. The relative viability ([22]; first compound 0.002 µM) was 0.576, the relative viability ([22]; first compound 0.006325 µM) was 0.459 and the relative viability ([22]; first compound 0.02 µM) was 0.116. It also gave a relative viability ([22]; first compound 0.06325 µM) of 0.109 and a relative viability ([22]; first compound 0.2 µM) of 0.0698.
